Measurements as given in US10159636B2, “Cosmetic composition containing acetylated oligoglucuronans” (Sederma, S.A.S., priority 2008, dated 2018).
Marks after values point to notes of the source that are not given here.

Columns and labels:
[1] = biological target: serum albumin incubated with fructose (Homo sapiens, UniProt P02768); assay: Anti-glycation efficacy: inhibition of AGE (FFI compounds) production, fluorescence; assay type: biochemical; conditions: 0.03%; serum albumin 2% + 100 mM fructose, pH 7.4, 50° C., 1 week; N=2
Sequence of serum albumin incubated with fructose (P02768 25-609): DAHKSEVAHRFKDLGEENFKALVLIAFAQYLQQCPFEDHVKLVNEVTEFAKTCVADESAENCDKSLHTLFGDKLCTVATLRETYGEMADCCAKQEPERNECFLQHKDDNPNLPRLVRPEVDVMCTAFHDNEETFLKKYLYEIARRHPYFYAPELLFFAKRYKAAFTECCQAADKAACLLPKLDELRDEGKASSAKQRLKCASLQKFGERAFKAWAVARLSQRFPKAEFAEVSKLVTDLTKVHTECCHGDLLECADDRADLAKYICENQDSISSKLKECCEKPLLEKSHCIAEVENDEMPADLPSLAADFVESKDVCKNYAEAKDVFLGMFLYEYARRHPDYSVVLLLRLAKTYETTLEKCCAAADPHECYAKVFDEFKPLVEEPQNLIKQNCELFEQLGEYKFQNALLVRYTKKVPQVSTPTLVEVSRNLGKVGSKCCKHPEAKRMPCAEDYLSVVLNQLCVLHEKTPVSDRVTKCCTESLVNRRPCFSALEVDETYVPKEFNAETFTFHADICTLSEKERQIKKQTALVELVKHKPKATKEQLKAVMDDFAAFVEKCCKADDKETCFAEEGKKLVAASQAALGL
Description: Principle: Non-enzymatic glycation between a protein and a reducing sugar is a slow spontaneous reaction which can be accelerated by temperature. An in vitro study model consisting of serum albumin incubated with fructose for one week was used. Glycation is recorded from the formation of fluorescent compounds, generally pentosides or FFI (furoyl-furanyl-imidazoles).
Protocol: In our test, serum albumin (2%) and 100 mM fructose are incubated in a pH 7.4 phosphate buffer at 50° C. for 1 week. […] The glycation reference value (Control) for the glycation after 1 week is determined from the serum albumin and fructose incubation. The positive glycation inhibition Control is obtained by incubating in the presence of aminoguanidine 0.03% and the test incubations are performed in the presence of 9.1% acetylated oligoglucuronans at different concentrations.
Results: For each fluorescence value measured the percentage change is calculated compared to the Control. The results shown in the table below are the mean values from N=2 tests.

[2] = tested on: elastin synthesis by fibroblasts; assay: Assay of elastin synthesis by fibroblasts (sandwich ELISA of culture supernatants); assay type: cell-based, human
Description: Normal human fibroblasts are inseminated. After anchoring for 24 h, TGF-β1 and 9.1% acetylated oligoglucuronans are placed in contact with the cells for 72 h. The culture supematants are removed and the amount of elastin is quantified by sandwich ELISA.
TGF-β1 is used as the positive control for elastin synthesis.
(§1) Analysis of variance is performed on the data (treated cases compared to untreated cases). If variances are equal, a Student t test for paired series is then performed on the mean values.
Normal human fibroblasts are inseminated. After anchoring for 24 h, TGF-β1, oligoglucuronans I, oligoglucuronans II, oligoglucuronans IIII, glucuronic acid and galacturonic acid are placed in contact with the cells for 72 h. The culture supernatants are removed and the amount of elastin present is quantified by sandwich ELISA.
TGF-β1 is used as a positive control for elastin.

[3] = tested on: laminin synthesis by keratinocytes; assay: Assay of laminin synthesis by keratinocytes (sandwich ELISA); assay type: cell-based, human; conditions: for Conclusion (laminin by keratinocytes) / % Change/untreated cells (laminin by keratinocytes): Table 9; for % Change/untreated cells (laminin by keratinocytes): n = 5
Description: Human keratinocytes are inseminated into 24 well plates. After anchoring for 24 h, TGF-β1 and 9.1% acetylated oligoglucuronans are placed in contact with the cells for 72 h. The culture supernatants are removed and the amount of laminin is quantified by sandwich ELISA.
TGF-β1 is used as a positive control for laminin synthesis.
as §1
Human keratinocytes are inseminated into well plates. After anchoring for 24 h, TGF-β1, oligoglucuronans I, oligoglucuronans II, oligoglucuronans III, glucuronic acid and galacturonic acid are placed in contact with the cells for 72 h. The culture supernatants are removed and the amount of laminin is quantified by sandwich ELISA.

[4] = tested on: hyaluronic acid synthesis by keratinocytes; assay: Assay of hyaluronic acid synthesis by keratinocytes (sandwich ELISA); assay type: cell-based, human; conditions: for % Change/untreated cells (hyaluronic acid synthesis by keratinocytes): 72 h
Description: Human keratinocytes are inseminated. After anchoring for 24 h, retinoic acid and 9.1% acetylated oligoglucuronans are placed in contact with the cells for 72 h. The culture supernatants are removed and the amount of hyaluronic acid is quantified by sandwich ELISA.
Retinoic acid is used at the positive control for hyaluronic acid synthesis.
as §1
Human keratinocytes are inseminated into well plates. After anchoring for 24 h, retinoic acid, oligoglucuronans I, oligoglucuronans II, oligoglucuronans III, glucuronic acid and galacturonic acid are placed in contact with the cells for 72 h. The culture supernatants are removed and the amount of hyaluronic acid is quantified by sandwich ELISA.
Retinoic acid is used as a positive control of hyaluronic acid.

[5] = Table 7, Eq 0.04% oligoglucuronans I, 72 h, n = 5
[6] = Eq 0.04% oligoglucuronans 1, 72 h
[7] = Eq 0.06% oligoglucuronans 1, 72 h
[8] = Table 8, Eq 0.04% oligoglucuronans I, n = 5
[9] = Table 8, Eq 0.06% oligoglucuronans I, n = 5

Row | Molecule | Conclusion (elastin synthesis by fibroblasts) ([2]; Table 7) | % Change/untreated cells (elastin synthesis by fibroblasts) [2, 5] | Conclusion (laminin by keratinocytes) [3] | % Change/untreated cells (laminin by keratinocytes) [3, 6] | % Change/untreated cells (laminin by keratinocytes) [3, 7] [%] | Conclusion (hyaluronic acid synthesis by keratinocytes) ([4]; Table 8) | % Change/untreated cells (hyaluronic acid synthesis by keratinocytes) [4, 8] | % Change/untreated cells (hyaluronic acid synthesis by keratinocytes) [4, 9] | further results
1 | N=C(N)NN [Aminoguanidine, aminoguanidine] |  |  |  |  |  |  |  |  | Reduction in AGE % compared to Control [1]: 67 +/− 2%
2 | O=C[C@H](O)[C@@H](O)[C@@H](O)[C@H](O)C(=O)O [Galacturonic acid] | =0 | −1% | =0 | +1% | −4 | =0 | +7% | +12% | 
3 | O=C[C@H](O)[C@@H](O)[C@H](O)[C@H](O)C(=O)O [Glucuronic acid] | =0 | +32% | =0 | −7% | −12 | =0 | +10% | +2% | 
4 | CC1=C(/C=C/C(C)=C/C=C/C(C)=C/C(=O)O)C(C)(C)CCC1 [Retinoic acid] |  |  |  |  |  |  |  |  | % Change/untreated cells (hyaluronic acid synthesis by keratinocytes) ([4]; Table 2, 1 μM, N = 3): +144%*; % Change/untreated cells (hyaluronic acid synthesis by keratinocytes) ([4]; Table 8, 1 μM, n = 5): +136%*
5 | TGF-β1: Positive control for elastin (fibroblast) and laminin (keratinocytes) | Positive |  | Positive |  |  |  |  |  | % Change/untreated cells (elastin synthesis by fibroblasts) ([2]; Table 1, 10 ng/mL, 72 h contact, N = 2): +122%*; % Change/untreated cells (elastin synthesis by fibroblasts) ([2]; Table 7, 10 ng/mL, 72 h, n = 5): +106%*; % Change/untreated cells (laminin synthesis by keratinocytes) ([3]; Table 3, 10 ng/mL, 72 h, N = 3): +291%*; % Change/untreated cells (laminin by keratinocytes) ([3]; 10 ng/mL, 72 h): +255%*
